This is an account of results in US20230286983A1 (4E Therapeutics, Inc., priority 2020, published 2023).

The target in one data set is MNK1 (Homo sapiens, UniProt Q9BUB5). Description: MNK1 substrate phosphorylation assay. To be noted: recombinant human kinase. It is filed as biochemical.
In the next data set the target is MNK2 (Homo sapiens, UniProt Q9HBH9). Description: MNK2 substrate phosphorylation assay. It is filed as biochemical. To be noted: recombinant human kinase.
Data set [1] has as its system eIF4E phosphorylation at Serine 209 in the human embryonic kidney (HEK) 293 cell line. Kind of data set: eIF4E phosphorylation in HEK 293 cells (fluorescent plate reader). In kind it is cell-based. To be noted: eIF4E phosphorylation at Serine 209, 2 hours exposure; for IC50: Homo sapiens. Put shortly: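 HEK-293 cells were treated with compound for 2 h, then methanol-fixed and Triton-permeabilized. Ser209 phospho-eIF4E was stained with primary antibody (1:2000, overnight) and an Alexa Fluor 488 secondary. Fluorescence was normalized to DAPI, and IC50 was fitted from concentration-response data.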

The subject of data set [2] is eIF4E phosphorylation at Serine 209 in the human osteosarcoma (U2OS) cell line. Kind of data set: eIF4E phosphorylation in U2OS cells (fluorescent plate reader). It is filed as cell-based. To be noted: eIF4E phosphorylation at Serine 209, 2 hours exposure; for IC50: Homo sapiens, U2OS. As for the experimental part: The ability of MNK inhibitors described herein to inhibit eIF4E phosphorylation at Serine 209 in the human osteosarcoma (U2OS) cell line was tested by exposing the cells to compound for 2 hours and then measuring eIF4E phosphorylation with a phosphorylation-specific antibody in a fluorescent plate reader.

The test system of another data set is P-gp (human MDR1, ABCB1). Description: MDCK-MDR1 permeability (blood brain barrier permeability). It is filed as in vitro ADME, Canine. To be noted: dog; for efflux ratio at 5 μM: MDCK-MDR1, 5 μM, read-out: Efflux ratio (ratio B-A/A-B); for Papp A→B at 5 μM: MDCK-MDR1, Apical to basolateral transport; for Papp A→B at 5 μM / Papp B→A at 5 μM: average of two experiments; for Papp B→A at 5 μM: MDCK-MDR1, Basolateral to apical transport.

A short description of data set [3]: Liver microsome stability, mouse. In kind it is in vitro ADME. To be noted: Mouse liver microsomes (*).
Data set [4] in a line: Liver microsome stability, human. It is filed as in vitro ADME. To be noted: liver microsomes; for half-life: read-out: Human liver microsomes t1/2.
Data set [5] concerns the target Cdc2-like kinase 4 (CLK4) (Homo sapiens, UniProt Q9HAZ1). Description: Off-target kinase screen CLK4. To be noted: 1 μM test compound. In kind it is biochemical. An excerpt: (§1) These kinases were chosen because they are the only known off-target hit kinases for eFT508. These assays were done using recombinant human kinases (CLK4, DRAK1 and PKG2) in a substrate phosphorylation assay. % activity remaining after MNK inhibitor treatment is indicated in Table 12.

For data set [6], the target named is T1, death-associated protein kinase-related apoptosis-inducing protein kinase 1 (DRAK1) (Homo sapiens, UniProt Q9UEE5).
T1 sequence (Q9UEE5 1-414): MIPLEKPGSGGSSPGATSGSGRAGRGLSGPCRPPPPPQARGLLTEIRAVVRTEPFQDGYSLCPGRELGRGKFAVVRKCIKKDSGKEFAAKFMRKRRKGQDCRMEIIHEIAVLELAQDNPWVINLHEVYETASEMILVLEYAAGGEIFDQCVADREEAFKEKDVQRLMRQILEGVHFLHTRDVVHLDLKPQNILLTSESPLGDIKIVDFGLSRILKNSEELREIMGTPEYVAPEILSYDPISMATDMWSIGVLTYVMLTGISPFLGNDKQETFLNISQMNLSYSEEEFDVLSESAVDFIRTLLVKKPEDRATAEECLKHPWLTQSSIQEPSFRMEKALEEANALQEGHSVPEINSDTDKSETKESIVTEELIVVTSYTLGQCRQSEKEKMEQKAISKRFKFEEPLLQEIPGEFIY
Kind of data set: Off-target kinase screen DRAK1. In kind it is biochemical. To be noted: 1 μM test compound.
Source text: as §1

For data set [7], the target named is T2, protein kinase G 2 (PKG2) (Homo sapiens, UniProt Q13237).
T2 sequence (Q13237 1-762): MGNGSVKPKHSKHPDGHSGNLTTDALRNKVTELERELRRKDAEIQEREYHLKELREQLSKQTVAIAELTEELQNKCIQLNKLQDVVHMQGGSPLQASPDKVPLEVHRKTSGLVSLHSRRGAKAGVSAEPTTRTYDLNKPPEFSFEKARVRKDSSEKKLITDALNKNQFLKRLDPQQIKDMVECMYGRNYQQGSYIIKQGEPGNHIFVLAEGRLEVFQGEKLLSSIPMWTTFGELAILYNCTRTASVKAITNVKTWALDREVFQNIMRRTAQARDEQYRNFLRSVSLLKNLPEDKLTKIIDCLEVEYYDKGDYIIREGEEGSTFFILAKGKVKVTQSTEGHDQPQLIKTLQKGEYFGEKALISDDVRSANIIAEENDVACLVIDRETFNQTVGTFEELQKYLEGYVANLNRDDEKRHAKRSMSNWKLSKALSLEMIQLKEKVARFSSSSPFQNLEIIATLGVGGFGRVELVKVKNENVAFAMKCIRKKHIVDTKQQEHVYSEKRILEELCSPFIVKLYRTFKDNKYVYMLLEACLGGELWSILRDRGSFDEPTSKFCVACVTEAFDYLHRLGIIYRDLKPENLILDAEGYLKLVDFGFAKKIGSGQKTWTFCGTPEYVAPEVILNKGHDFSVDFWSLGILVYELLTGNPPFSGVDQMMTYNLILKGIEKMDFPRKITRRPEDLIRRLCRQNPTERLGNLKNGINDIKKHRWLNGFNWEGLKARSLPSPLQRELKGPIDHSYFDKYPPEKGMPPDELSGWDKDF
Kind of data set: Off-target kinase screen PKG2. It is filed as biochemical. To be noted: 1 μM test compound.
Source text: as §1

Data set [8] is described as follows: Liver microsome stability, rat. In kind it is in vitro ADME. To be noted: Rat liver microsomes (#); for microsomal CLint: read-out: CLint rodent; for half-life: read-out: Rodent liver microsomes t1/2.
Data set [9] has as its system eIF4E phosphorylation at Serine 209 in Karpas 299. Kind of data set: eIF4E phosphorylation in Karpas 299 cells (sandwich ELISA). In kind it is cell-based. To be noted: Homo sapiens, read-out: Karpas 299 cell IC50. On the procedure: The ability of MNK inhibitors described herein to inhibit eIF4E phosphorylation at Serine 209 in Karpas 299, Human Non-Hodgkin's Ki-positive Large Cell Lymphoma cell line was tested by sandwich enzyme linked immune-absorbance assay.

Chain of MNK2 (Q9HBH9 whole entry): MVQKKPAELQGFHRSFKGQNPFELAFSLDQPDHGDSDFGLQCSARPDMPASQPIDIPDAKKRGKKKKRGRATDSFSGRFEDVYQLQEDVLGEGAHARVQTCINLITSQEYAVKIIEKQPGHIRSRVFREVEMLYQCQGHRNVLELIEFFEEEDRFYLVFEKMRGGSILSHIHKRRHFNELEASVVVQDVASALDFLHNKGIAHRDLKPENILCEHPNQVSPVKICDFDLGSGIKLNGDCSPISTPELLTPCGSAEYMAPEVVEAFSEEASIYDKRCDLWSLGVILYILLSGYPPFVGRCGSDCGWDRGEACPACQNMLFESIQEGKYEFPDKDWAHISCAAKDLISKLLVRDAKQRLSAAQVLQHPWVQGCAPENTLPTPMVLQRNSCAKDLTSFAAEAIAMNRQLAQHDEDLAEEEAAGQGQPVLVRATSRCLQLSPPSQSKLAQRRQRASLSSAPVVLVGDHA
Chain of Cdc2-like kinase 4 (CLK4) (Q9HAZ1 whole entry): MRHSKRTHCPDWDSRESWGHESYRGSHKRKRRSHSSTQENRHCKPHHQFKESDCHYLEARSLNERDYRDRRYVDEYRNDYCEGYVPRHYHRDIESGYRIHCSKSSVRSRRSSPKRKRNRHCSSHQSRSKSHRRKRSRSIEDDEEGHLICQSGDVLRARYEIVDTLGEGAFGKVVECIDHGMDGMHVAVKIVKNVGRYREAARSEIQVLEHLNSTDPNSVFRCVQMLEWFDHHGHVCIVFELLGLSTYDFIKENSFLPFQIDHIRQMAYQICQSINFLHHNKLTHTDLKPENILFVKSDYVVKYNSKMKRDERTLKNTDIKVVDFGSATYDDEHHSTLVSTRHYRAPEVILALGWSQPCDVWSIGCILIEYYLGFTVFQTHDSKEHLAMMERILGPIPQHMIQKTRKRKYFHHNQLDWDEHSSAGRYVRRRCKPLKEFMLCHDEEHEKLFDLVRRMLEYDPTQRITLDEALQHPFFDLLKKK
Chain of MNK1 (Q9BUB5 whole entry): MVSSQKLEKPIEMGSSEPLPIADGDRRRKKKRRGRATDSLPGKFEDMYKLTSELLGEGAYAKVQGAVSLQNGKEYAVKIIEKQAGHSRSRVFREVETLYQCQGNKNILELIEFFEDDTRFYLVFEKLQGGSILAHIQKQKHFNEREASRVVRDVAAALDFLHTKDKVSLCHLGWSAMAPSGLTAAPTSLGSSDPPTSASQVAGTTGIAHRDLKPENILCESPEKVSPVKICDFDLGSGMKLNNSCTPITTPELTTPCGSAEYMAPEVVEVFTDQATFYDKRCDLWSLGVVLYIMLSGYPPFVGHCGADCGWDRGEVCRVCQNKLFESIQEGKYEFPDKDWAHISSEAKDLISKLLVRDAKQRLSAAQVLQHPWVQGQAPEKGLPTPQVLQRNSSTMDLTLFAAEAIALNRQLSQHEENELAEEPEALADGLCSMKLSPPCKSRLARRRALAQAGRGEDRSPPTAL

For the molecule `Cc1cc(Nc2cc(NCCNS(C)(=O)=O)ncn2)c(=O)n2c1C(=O)NC21CCCCC1` [Compound 4ET-02-004, N-(2-((6-((8′-methyl-1′,5′-dioxo-1′,5′-dihydro-2′H-spiro[cyclohexane-1,3′-imidazo[1,5-a]pyridin]-6′-yl)amino)pyrimidin-4-yl)amino)ethyl)methanesulfonamide], the 50% inhibitory concentration (IC50) at MNK1 came to 61.7 nM; at MNK2, 2.1 nM; in data set [1] (HEK293, 2 h), 30.7 nM; in data set [2], 30 nM. For the same molecule, the efflux ratio at 5 μM in the data set with P-gp (human MDR1, ABCB1) was 30.2. The same molecule returned a Papp A→B at 5 μM in the data set on P-gp (human MDR1, ABCB1) of 0.3 ×10⁻⁶ cm/s. Also, the basolateral-to-apical permeability (Papp B→A) at 5 μM in the data set on P-gp (human MDR1, ABCB1) was 7.6 ×10⁻⁶ cm/s. For the same molecule, the microsomal CLint was determined as 2.5 µL/min/mg in [3] (read-out: CLint rodent) and 1.25 µL/min/mg in [4]. Also, the half-life is 9.25 h in data set [3] (mouse, liver microsomes, Table 11a, read-out: Rodent liver microsomes t1/2) and 18.5 h in [4]. Moreover, the remaining activity at 1 µM was found to be 81% in [5], 86% in data set [6] and 100% in [7].

For `Cc1cc(Nc2cc(NCCNS(C)(=O)=O)ncn2)c(=O)n2c1C(=O)NC21CCCC1` [Compound 4ET-03-013, N-(2-((6-((8′-methyl-1′,5′-dioxo-1′,5′-dihydro-2′H-spiro[cyclopentane-1,3′-imidazo[1,5-a]pyridin]-6′-yl)amino)pyrimidin-4-yl)amino)ethyl)methanesulfonamide], on MNK1, the 50% inhibitory concentration (IC50) was determined as 205 nM. The IC50 at MNK2 was determined as 8 nM. Moreover, the “HEK 293 cell IC50” value in data set [1] is “inactive”. Also, the “U2OS cell IC50” value in data set [2] is “inactive”. In addition, in the data set with P-gp (human MDR1, ABCB1), the efflux ratio at 5 μM was found to be 18.1, the Papp A→B at 5 μM came out at 0.2 ×10⁻⁶ cm/s and the Papp B→A at 5 μM came to 3.9 ×10⁻⁶ cm/s.

For `Cc1cc(Nc2cc(N)ncn2)c(=O)n2c1C(=O)NC21CCC(NS(C)(=O)=O)CC1` (centres unmarked) [Compound 4ET-01-004, N-(6′-((6-Aminopyrimidin-4-yl)amino)-8′-methyl-1′,5′-dioxo-1′,5′-dihydro-2′H-spiro[cyclohexane-1,3′-imidazo[1,5-a]pyridin]-4-yl)methanesulfonamide], the IC50 was 104 nM on MNK1; 8.2 nM on MNK2; 33.6 nM in data set [1] (HEK293, 2 h). Also, in the data set with P-gp (human MDR1, ABCB1), the efflux ratio at 5 μM stood at 4.4. The same molecule had an apical-to-basolateral permeability (Papp A→B) at 5 μM in the data set with P-gp (human MDR1, ABCB1) of 0.1 ×10⁻⁶ cm/s. In the data set with P-gp (human MDR1, ABCB1), this molecule displayed a Papp B→A at 5 μM of 0.3 ×10⁻⁶ cm/s. Moreover, the microsomal CLint in [8] was 9.57 µL/min/mg; in data set [4], 2.56 µL/min/mg. The half-life came out at 2.42 h in [8] and 9.02 h in [4]. Also, the remaining activity at 1 µM in data set [5] came out at 93%; in [6], 76%; in data set [7] it was 100%.

For the molecule `Cc1cc(Nc2cc(NC(=O)C(C)C)ncn2)c(=O)n2c1C(=O)NC21CCCC1` [Compound 4ET-03-005, N-(6-((8′-Methyl-1′,5′-dioxo-1′,5′-dihydro-2′H-spiro[cyclopentane-1,3′-imidazo[1,5-a]pyridin]-6′-yl)amino)pyrimidin-4-yl)isobutyramide], the IC50 on MNK1 was 20.5 nM; at MNK2, 1.8 nM; in data set [1] (HEK293, 2 h), 2.6 nM; in data set [9], 6.4 nM; in data set [2], 5.1 nM. Besides, the efflux ratio at 5 μM in the data set on P-gp (human MDR1, ABCB1) worked out at 3.8. Moreover, the Papp A→B at 5 μM with P-gp (human MDR1, ABCB1) worked out at 15.5 ×10⁻⁶ cm/s. Besides, in the data set with P-gp (human MDR1, ABCB1), the basolateral-to-apical permeability (Papp B→A) at 5 μM amounted to 58.6 ×10⁻⁶ cm/s. The figures for the microsomal CLint in data set [8] and in data set [4] were 4.84 µL/min/mg and 0.77 µL/min/mg, respectively. The values for the half-life in data set [8] and in data set [4] were 4.78 h and 29.9 h, respectively.

With `Cc1cc(Nc2cc(N)ncn2)c(=O)n2c1C(=O)NC2(C)C` [Compound 4ET-01-003, 6-((6-Aminopyrimidin-4-yl)amino)-3,3,8-trimethyl-2,3-dihydroimidazo[1,5-a]pyridine-1,5-dione], the 50% inhibitory concentration (IC50) stood at 2 nM at MNK2, 10.5 nM in data set [1] (HEK293) and 35 nM in [9]. In the data set with P-gp (human MDR1, ABCB1), this molecule gave an apparent permeability from apical to basolateral (Papp A→B) at 5 μM of 9.1 ×10⁻⁶ cm/s. In the data set with P-gp (human MDR1, ABCB1), this molecule had a basolateral-to-apical permeability (Papp B→A) at 5 μM of 13.3 ×10⁻⁶ cm/s. For the same molecule, the microsomal CLint in data set [8] was 2.33 µL/min/mg; in data set [4], 1.93 µL/min/mg. The half-life in data set [8] was 9.93 h; in [4] it was 12 h. Moreover, the remaining activity at 1 µM in data set [5] is 91%; in data set [6], 65%; in data set [7] it was 88%.

For the molecule `Cc1cc(Nc2cc(NC(=O)C3CC3)ncn2)c(=O)n2c1C(=O)NC21CCCC1` [Compound 4ET-03-017, N-(6-((8′-Methyl-1′,5′-dioxo-1′,5′-dihydro-2′H-spiro[cyclopentane-1,3′-imidazo[1,5-a]pyridin]-6′-yl)amino)pyrimidin-4-yl)cyclopropanecarboxamide], the concentration for half-maximal inhibition (IC50) in [1] (HEK293) stood at 0.9 nM; in data set [9], 1 nM; in data set [2] it was 0.4 nM. This molecule displayed a Papp A→B at 5 μM with P-gp (human MDR1, ABCB1) of 16.3 ×10⁻⁶ cm/s. The molecule further gave a basolateral-to-apical permeability (Papp B→A) at 5 μM in the data set on P-gp (human MDR1, ABCB1) of 58.9 ×10⁻⁶ cm/s. Besides, the remaining activity at 1 µM in data set [5] turned out to be 17%; in data set [6], 9%; in data set [7], 100%.

Take `Cc1cc(Nc2cc(NCCO)ncn2)c(=O)n2c1C(=O)NC21CCCCC1` [Compound 4ET-02-001, 6′-((6-((2-Hydroxyethyl)amino)pyrimidin-4-yl)amino)-8′-methyl-2′H-spiro[cyclohexane-1,3′-imidazo[1,5-a]pyridine]-1′,5′-dione]: the half-inhibitory concentration (IC50) is 39.6 nM at MNK1; 1.6 nM at MNK2; 7.1 nM in [1] (HEK293, 2 h); 17 nM in data set [9]. Further, the microsomal CLint in [8] stood at 2.54 µL/min/mg; in data set [4], 2.51 µL/min/mg. In addition, the half-life was 9.1 h in data set [8] and 9.2 h in data set [4]. Further, the remaining activity at 1 µM in data set [5] came out at 92%; in [6] it was 81%; in data set [7] it was 99%.
